Measured values: PubChem BioAssay (NCI)
“And” between values parts separate entries of the source, which are not always exact repeats. Identical values can stand only once.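 Growth conditions: 96-well plates. Treatment: test compound, 48 hours, 5 concentrations. Analysis: linear interpolation between bracketing concentrations; unreached endpoints set to highest concentration. Here, GI50 denotes the concentration required for 50% inhibition of growth. TGI is the concentration that stops growth completely.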

Tests used:
Assay in all cases: NCI tumour cell line growth inhibition, 48 h
MDA-N = tested on: MDA-N
LXFL 529 NSCLC = tested on: LXFL 529 NSCLC
DMS 273 small cell lung = tested on: DMS 273 small cell lung
M19-MEL melanoma = tested on: M19-MEL melanoma
DMS 114 small cell lung = tested on: DMS 114 small cell lung
HOP-18 NSCLC = tested on: HOP-18 NSCLC
DLD-1 colon = tested on: DLD-1 colon
SN12K1 renal = tested on: SN12K1 renal
P388/ADR leukemia = tested on: P388/ADR leukemia
XF 498 CNS = tested on: XF 498 CNS
RXF-631 renal = tested on: RXF-631 renal

Row | Compound | TGI (MDA-N) [µM] | TGI (LXFL 529 NSCLC) [µM] | TGI (DMS 273 small cell lung) [µM] | TGI (M19-MEL melanoma) [µM] | TGI (DMS 114 small cell lung) | TGI (HOP-18 NSCLC) [µM] | TGI (DLD-1 colon) | TGI (RXF-631 renal) [µM] | TGI (XF 498 CNS) [µM] | also measured
1 | c1cc(CCN2CCCCC2)ccn1 | > 100 | – | – | – | – | – | – | – | – | –
2 | O=c1c2cc(Br)ccc2nc(-c2ccccc2Cl)n1NCC1(O)OCC(O)C(O)C1O (centres undefined) | – | > 100 | > 100 | > 100 | > 100 µM | – | – | – | – | –
3 | Nc1ccn(CCO)c(=O)n1 | – | > 100 | > 100 | > 100 | > 100 µM | > 100 | > 100 µM | – | – | –
4 | COC(C(=O)C(O)C(C)O)C1Cc2cc3cc(OC4CC(OC(C)=O)C(OC5CC(O)C(OC)C(C)O5)C(C)O4)cc(O)c3c(O)c2C(=O)C1OC1CC(OC2CC(OC3CC(C)(O)C(OC(=O)C(C)C)C(C)O3)C(O)C(C)O2)C(O)C(C)O1 (centres undefined) | 0.252 | 0.124 | – | – | 0.084 µM and 0.017 µM and 0.0165 µM | – | 8.61 µM and > 27.3 µM | – | – | TGI (SN12K1 renal): 0.0126 µM; GI50 (LXFL 529 NSCLC): 0.0174 µM; GI50 (DLD-1 colon): 0.298 µM and 0.0325 µM; TGI (P388/ADR leukemia): 75 µM and > 100 µM; GI50 (XF 498 CNS): 0.00637 µM and 0.00134 µM
5 | O=C1/C(=C/c2ccccc2F)CNC/C1=C\c1ccccc1F | 1.71 | – | – | – | – | – | – | – | – | GI50 (MDA-N): 0.485 µM
6 | Nc1ncnc2c1ncn2CC(O)C(=O)O (centres undefined) | > 100 | > 100 | > 100 | > 100 | > 100 µM | > 100 | > 100 µM | – | – | –
7 | CCCCCCCCCCC(O)[C@H]1CCC(C2CC[C@H]([C@H](O)CCCCCCCCCCC(O)CC3=CC(C)OC3=O)O2)O1 (some centres undefined) | – | 9.79 | 4.4 | 8.92 | 3.01 µM | – | > 100 µM | 8.13 | – | –
8 | NC1=C(Br)C(=O)c2ncccc2C1=O | – | 0.8 | 1.44 | 0.298 | 0.313 µM | – | 1.98 µM | 3.73 | 2.16 | –
9 | CC(/C(=N/NC(=O)C(N)=O)c1c(Cl)ccc(Cl)c1O)C1(O)C(=O)Nc2ccccc21 (centres undefined) | – | > 100 | > 100 | > 100 | > 100 µM | > 100 | > 100 µM | > 100 | – | –
10 | C=C(C)C(=O)OC1CC2=CC(CC3(C)OC3C3OC(=O)C(=C)C13)OC2=O (centres undefined) | – | 5.94 | 28.3 | 19 | 30.3 µM | 34.1 | 5.17 µM | 35.8 | – | –
11 | OCC(O)C(OC1OC(CO)C(O)C(O)C1O)c1nn(-c2ccccc2)c2nc3cc(Cl)c(Cl)cc3cc12 (centres undefined) | – | > 100 | – | > 100 | – | – | > 100 µM | > 100 | > 100 | –
12 | CS(=O)(=O)OCCn1cnc2nc(NC(=O)c3ccccc3)[nH]c(=O)c21 | – | > 100 | > 100 | > 100 | > 100 µM | > 100 | > 100 µM | > 100 | – | –
13 | CC(=O)Nc1ccccc1C=C1c2ccccc2-c2ccccc21 | > 100 | – | – | – | – | – | – | – | – | –
14 | COCC1N=C(c2cc(OC)c(OC)c(OC)c2-c2cc3c(cc2C2OCCCO2)OCO3)O[C@H]1c1ccccc1 (some centres undefined) | – | – | > 100 | > 100 | > 100 µM | – | > 100 µM | – | – | –
15 | Cc1cccc(NC(=O)c2cc3cc(N=Nc4ccccc4Cl)ccc3oc2=O)c1 | – | > 100 | > 100 | > 100 | 66.8 µM | > 100 | > 100 µM | > 100 | 64.5 | –
16 | CCc1ccccc1N1CCN(C(=O)c2cc(OC)c(OC)c(OC)c2)CC1 | – | – | > 100 | > 100 | 0.692 µM | > 91.9 | > 100 µM | – | 17.9 | TGI (SN12K1 renal): 0.194 µM; TGI (P388/ADR leukemia): 4.22 µM
17 | CCCCCCCCC(=O)N(C)C1C2CN3CCC(O2)C13 (centres undefined) | – | > 100 | > 100 | > 100 | > 100 µM | > 100 | > 100 µM | – | – | –
18 | O=c1[nH]nc2ccccc2c1Cl | – | – | 35.5 | 20.1 | 18.9 µM | 29.1 | 22.8 µM | 28.4 | 28.1 | –
19 | O=c1c2cccc3cccc(c4oc5c6cccc7cccc(c(=O)c5c14)c76)c32 | – | 15.8 | 17.9 | 16.9 | 18.5 µM | 24.8 | 30.2 µM | 19.3 | – | –
20 | COC1(O)C(=O)c2ccccc2OC1(OC)c1ccccc1 (centres undefined) | > 100 | – | – | – | – | – | – | – | – | –

Row | Compound | TGI (MDA-N) [µM] | TGI (LXFL 529 NSCLC) [µM] | TGI (DMS 273 small cell lung) [µM] | TGI (M19-MEL melanoma) [µM] | TGI (DMS 114 small cell lung) | TGI (HOP-18 NSCLC) [µM] | TGI (DLD-1 colon) | TGI (RXF-631 renal) [µM] | TGI (XF 498 CNS) [µM] | also measured
21 | N#C/C(=C1\NN=C(N)C(c2ccc(Cl)cc2)=C1O)c1ccc(Cl)cc1 | – | > 100 | > 100 | > 100 | > 100 µM | > 100 | > 100 µM | – | > 100 | –
22 | O=C1Nc2ccccc2C1Cc1ccc([N+](=O)[O-])cc1 (centres undefined) | > 100 | – | – | – | – | – | – | – | – | –
23 | O=C(O)CCSCCCN1C(=O)c2ccccc2C1=O | – | > 100 | – | > 100 | > 100 µM | – | – | – | – | –
24 | O=C1C=C[C@@]23C[C@@H](Nc4c(O)c5c6c(c42)=NCCC=6C=N5)SC3=C1 | 3.1 | 3.24 | 8.37 | 3.24 | – | 28.1 | 3.22 µM | – | 4.95 | GI50 (DMS 273 small cell lung): 2.42 µM; GI50 (HOP-18 NSCLC): 14.8 µM; GI50 (DLD-1 colon): 1.74 µM; GI50 (M19-MEL melanoma): 1.71 µM; GI50 (XF 498 CNS): 2.34 µM
25 | Fc1cccc2cc3ccc4cccc5ccc(c12)c3c45 | – | > 100 | > 100 | > 100 | > 100 µM | 12.8 | > 100 µM | > 100 | > 100 | –
26 | O=C(/C=C/c1ccc(Cl)c(Cl)c1)c1ccc(F)cc1 | – | 27.7 | 26.9 | 32.5 | 30 µM | 50.2 | 27.8 µM | > 100 | – | –
27 | COC(=O)C1C2C=CC(C2)C1(C(=O)OC)S(=O)CC12CCC(CC1O)C2(C)C (centres undefined) | – | > 100 | > 100 | > 100 | > 100 µM | > 100 | > 100 µM | > 100 | > 100 | –
28 | CN(C)CCNC(=O)c1ccc(C(=O)NCCN(C)C)c2nc3ccccc3cc12 | – | 12.3 | 4.76 | 2.35 | 2.16 µM | 25.4 | 5.28 µM | 14.8 | – | –
29 | C/C([O-])=C1\Cc2ccccc2C1=O.C/C([O-])=C1\Cc2ccccc2C1=O.CC[O-].CC[O-].[Ti+4] | 42.3 | 35.5 | 31.4 | 34.8 | 37.4 µM | 80 | > 100 µM | 29.1 | – | GI50 (RXF-631 renal): 6.96 µM; GI50 (MDA-N): 17.1 µM; GI50 (LXFL 529 NSCLC): 12.3 µM; GI50 (DMS 273 small cell lung): 8.38 µM; GI50 (HOP-18 NSCLC): 32.5 µM; GI50 (DLD-1 colon): 18.7 µM; GI50 (M19-MEL melanoma): 16.8 µM; GI50 (DMS 114 small cell lung): 18.7 µM
30 | COc1ccc(C2=NN(C(=O)COc3ccc(Cl)cc3)C(O)(c3ccc(Cl)cc3)C2)cc1 (centres undefined) | – | > 100 | > 100 | – | – | – | > 100 µM | > 100 | > 100 | –
31 | Nc1c(Br)c(=O)[nH]c(=O)n1COCCO | – | > 100 | > 100 | > 100 | > 100 µM | > 100 | > 100 µM | > 100 | > 100 | –
32 | O=C1OC(CC(=O)c2ccc(Cl)cc2Cl)C(Cl)=C1Cl (centres undefined) | – | 32.1 | > 100 | 48.8 | > 53.1 µM | > 100 | 54.5 µM | > 75.5 | 45.6 | –
33 | CC1=C(C(=O)Nc2cccc(Cl)c2)C(c2ccc([N+](=O)[O-])cc2)C(C(=O)Nc2cccc(Cl)c2)=C(C)N1 | – | > 100 | – | – | > 100 µM | 56.7 | > 100 µM | 57.6 | – | –
34 | Cc1nn(-c2ccccc2)c2c1CC(=O)Nc1ccccc1-2 | 0.47 | – | – | – | – | – | – | – | – | –
35 | Cc1ccc(S(=O)(=O)NNC(=O)c2sc(-c3nc(C)c(C(=O)NNS(=O)(=O)c4ccc(C)cc4)s3)nc2C)cc1 | – | > 100 | – | > 100 | – | – | > 100 µM | – | – | –
36 | Cc1ccc2c(c1C)-c1c(ccc(C)c1C)C(=O)C2=O | 0.348 | – | – | – | – | – | – | – | – | –
37 | CC1CC(c2cccc3c2OCO3)=Nc2ccccc2S1 (centres undefined) | – | > 100 | > 100 | > 100 | > 100 µM | – | > 100 µM | – | > 100 | –
38 | COc1ccc(C(Cc2cc(OC)c(OC)c(OC)c2)C(=O)O)cc1 (centres undefined) | – | – | > 100 | > 100 | > 100 µM | > 100 | > 100 µM | > 100 | > 100 | –
39 | Cc1cc(C)c2c(c1)Nc1ccccc1P2c1ccccc1 (centres undefined) | – | > 100 | 50.7 | – | > 100 µM | – | 65.7 µM | – | 33.3 | –
40 | C=C1CC2(C[C@@H](c3ccccc3)O[C@@H](c3ccccc3)C2)OC1=O (some centres undefined) | 5.76 | – | – | – | – | – | – | – | – | –
